Experiments:
[1] = molecular target: T1, IRAK4 (Homo sapiens, UniProt Q9NWZ3); assay: IRAK4 enzymatic assay (ADP-Glo luminescence); assay type: biochemical; details: purified human recombinant His-TEV-IRAK4 (1-460), ATP 2 μM
T1 construct: His-TEV-IRAK4 (1-460); His (N); TEV cleavage site (N)
T1 sequence (Q9NWZ3 1-460): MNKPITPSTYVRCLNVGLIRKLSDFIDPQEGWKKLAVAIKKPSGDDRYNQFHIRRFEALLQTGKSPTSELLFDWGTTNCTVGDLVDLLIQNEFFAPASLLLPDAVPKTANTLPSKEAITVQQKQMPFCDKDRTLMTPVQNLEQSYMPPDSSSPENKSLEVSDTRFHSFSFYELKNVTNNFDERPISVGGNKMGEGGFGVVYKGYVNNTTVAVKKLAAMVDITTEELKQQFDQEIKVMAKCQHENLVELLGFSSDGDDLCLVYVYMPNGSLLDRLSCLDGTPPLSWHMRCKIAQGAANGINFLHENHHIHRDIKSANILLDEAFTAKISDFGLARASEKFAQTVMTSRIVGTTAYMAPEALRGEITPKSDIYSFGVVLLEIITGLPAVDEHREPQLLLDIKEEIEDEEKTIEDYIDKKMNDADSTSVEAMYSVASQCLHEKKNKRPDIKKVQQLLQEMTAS
Outline: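 Recombinant His-TEV-IRAK4 (1-460) at 0.3 μg/ml preincubated 15 min at RT with compounds (10 μM to 0.5 nM) in Hepes pH 7.0 buffer with MgCl2/MnCl2. Reaction started with 2 μM ATP and 300 nM STK1-biotin peptide, run 2 h at RT. ADP formed read by ADP-Glo luminescence.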

[2] = molecular target: T2, IRAK1 (Homo sapiens, UniProt P51617); assay: IRAK1 enzymatic assay (ADP-Glo luminescence); assay type: biochemical; details: purified human recombinant His-TEV-IRAK1 (194-712)
T2 construct: His-TEV-IRAK1 (194-712); His (N); TEV cleavage site (N)
T2 sequence (P51617 194-712): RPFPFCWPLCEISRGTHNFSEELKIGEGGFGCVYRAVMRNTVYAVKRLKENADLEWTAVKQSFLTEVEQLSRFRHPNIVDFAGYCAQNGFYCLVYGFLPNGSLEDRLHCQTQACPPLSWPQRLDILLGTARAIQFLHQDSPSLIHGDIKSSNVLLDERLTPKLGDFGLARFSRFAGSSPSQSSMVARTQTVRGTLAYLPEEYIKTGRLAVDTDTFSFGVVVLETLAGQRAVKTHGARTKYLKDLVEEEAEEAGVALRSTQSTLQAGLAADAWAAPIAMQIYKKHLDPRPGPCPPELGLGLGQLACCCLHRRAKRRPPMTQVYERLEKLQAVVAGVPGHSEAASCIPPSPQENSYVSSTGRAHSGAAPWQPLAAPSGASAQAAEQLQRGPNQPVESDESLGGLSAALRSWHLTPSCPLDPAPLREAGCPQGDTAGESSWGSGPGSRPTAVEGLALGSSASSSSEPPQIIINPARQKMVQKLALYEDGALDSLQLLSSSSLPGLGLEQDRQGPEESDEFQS
Outline: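 Recombinant human His-TEV-IRAK1 (194-712), 0.3 μg/ml, preincubated 15 min at RT with compounds (10 μM to 0.5 nM) in 50 mM Hepes pH 7.0, 10 mM MgCl2, 2 mM DTT, 0.1% BSA. ATP-started reaction run 2 hours at RT; ADP formed from ATP hydrolysis/autophosphorylation read by ADP-Glo luminescence.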

SMILES | IC50 [1] [nM] | IC50 [2] [nM]
C[C@H](CCO)n1/c(=N/C(=O)c2cccc(OC(F)F)c2)[nH]c2cc(N3CCOCC3=O)ccc21 [Compound 65, (R,E)-3-(difluoromethoxy)-N-(1-(4-hydroxybutan-2-yl)-5-(3-oxomorpholino)-1H-benzo[d]imidazol-2(3H)-ylidene)benzamide] | ≤ 100 | ≤ 100
O=C(/N=c1\[nH]c2cc(N3CCOCC3=O)ccc2n1CC1(CO)CC1)c1cccc(OC(F)F)c1 [Compound 66, (E)-3-(difluoromethoxy)-N-(1-((1-(hydroxymethyl)cyclopropyl)methyl)-5-(3-oxomorpholino)-1H-benzo[d]imidazol-2(3H)-ylidene)benzamide] | ≤ 100 | 100 to 1000
Cc1cc2c(cc1N1CCOCC1=O)[nH]/c(=N\C(=O)c1cccc(C(F)(F)F)c1)n2CCCO [Compound 70, (E)-N-(1-(3-hydroxypropyl)-6-methyl-5-(3-oxomorpholino)-1H-benzo[d]imidazol-2(3H)-ylidene)-3-(trifluoromethyl)benzamide] | ≤ 100 | 100 to 1000
O=C(/N=c1\[nH]c2cc(N3CCOCC3=O)ccc2n1CCCO)c1cnccn1 [Compound 72, (E)-N-(1-(3-hydroxypropyl)-5-(3-oxomorpholino)-1H-benzo[d]imidazol-2(3H)-ylidene)pyrazine-2-carboxamide] | > 1000 | > 1000
COc1cc2c(cc1N1CCOCC1=O)[nH]/c(=N\C(=O)c1cccc(C#N)c1)n2CCCO [Compound 74, (E)-3-cyano-N-(1-(3-hydroxypropyl)-6-methoxy-5-(3-oxomorpholino)-1H-benzo[d]imidazol-2(3H)-ylidene)benzamide] | ≤ 100 | ≤ 100
COc1cc2c(cc1N1CCOCC1=O)[nH]/c(=N\C(=O)c1cccc(C(F)F)c1)n2CCCO [Compound 75, (E)-3-(difluoromethyl)-N-(1-(3-hydroxypropyl)-6-methoxy-5-(3-oxomorpholino)-1H-benzo[d]imidazol-2(3H)-ylidene)benzamide] | ≤ 100 | ≤ 100
O=C(/N=c1\[nH]c2cc(N3CCOCC3=O)ccc2n1CCCO)c1cccnc1 [Compound 77, (E)-N-(1-(3-hydroxypropyl)-5-(3-oxomorpholino)-1H-benzo[d]imidazol-2(3H)-ylidene)nicotinamide] | ≤ 100 | 100 to 1000
Cc1ccc(C(=O)/N=c2\[nH]c3cc(N4CCOCC4=O)ccc3n2CCCO)cc1C(F)(F)F [Compound 78, (E)-N-(1-(3-hydroxypropyl)-5-(3-oxomorpholino)-1H-benzo[d]imidazol-2(3H)-ylidene)-4-methyl-3-(trifluoromethyl)benzamide] | ≤ 100 | > 1000
O=C(/N=c1\[nH]c2cc(N3CCOCC3=O)ccc2n1CCCO)c1cc(F)cc(C(F)(F)F)c1 [Compound 81, (E)-3-fluoro-N-(1-(3-hydroxypropyl)-5-(3-oxomorpholino)-1H-benzo[d]imidazol-2(3H)-ylidene)-5-(trifluoromethyl)benzamide] | ≤ 100 | ≤ 100
CS(=O)(=O)c1cccc(C(=O)/N=c2\[nH]c3cc(N4CCOCC4=O)ccc3n2CCCO)c1 [Compound 82, (E)-N-(1-(3-hydroxypropyl)-5-(3-oxomorpholino)-1H-benzo[d]imidazol-2(3H)-ylidene)-3-(methylsulfonyl)benzamide] | ≤ 100 | 100 to 1000
O=C(/N=c1\[nH]c2cc(N3CCOCC3=O)ccc2n1CCCO)c1cccc(C(F)(F)F)n1 [Compound 84, (E)-N-(1-(3-hydroxypropyl)-5-(3-oxomorpholino)-1H-benzo[d]imidazol-2(3H)-ylidene)-6-(trifluoromethyl)picolinamide] | 100 to 1000 | > 1000
O=C(/N=c1\[nH]c2cc(N3CCOCC3=O)ccc2n1CCCO)c1cncc(C(F)(F)F)c1 [Compound 85, (E)-N-(1-(3-hydroxypropyl)-5-(3-oxomorpholino)-1H-benzo[d]imidazol-2(3H)-ylidene)-5-(trifluoromethyl)nicotinamide] | ≤ 100 | 100 to 1000
O=C(/N=c1\[nH]c2cc(N3CCOCC3=O)ccc2n1CCCO)c1cccc(C(F)(F)F)c1 [Compound 86, (E)-N-(1-(3-hydroxypropyl)-5-(3-oxomorpholino)-1H-benzo[d]imidazol-2(3H)-ylidene)-3-(trifluoromethyl)benzamide] | ≤ 100 | 100 to 1000
C[S+]([O-])CCCCn1/c(=N/C(=O)c2cccc(C(F)F)c2)[nH]c2cc(N3CCOCC3=O)ccc21 (stereo not shown) [Compound 88] | ≤ 100 | 100 to 1000
CSCCCCn1/c(=N/C(=O)c2cccc(C(F)F)c2)[nH]c2cc(N3CCOCC3=O)ccc21 [Compound 89, (E)-3-(difluoromethyl)-N-(1-(4-(methylthio)butyl)-5-(3-oxomorpholino)-1H-benzo[d]imidazol-2(3H)-ylidene)benzamide] | 100 to 1000 | > 1000
CS(=O)(=O)CCCn1/c(=N/C(=O)c2cccc(C(F)F)c2)[nH]c2cc(N3CCOCC3=O)ccc21 [Compound 90, (E)-3-(difluoromethyl)-N-(1-(3-(methylsulfonyl)propyl)-5-(3-oxomorpholino)-1H-benzo[d]imidazol-2(3H)-ylidene)benzamide] | ≤ 100 | ≤ 100
C[S+]([O-])CCCn1/c(=N/C(=O)c2cccc(C(F)F)c2)[nH]c2cc(N3CCOCC3=O)ccc21 (stereo not shown) [Compound 91, (E)-3-(difluoromethyl)-N-(1-(3-(methylsulfinyl)propyl)-5-(3-oxomorpholino)-1H-benzo[d]imidazol-2(3H)-ylidene)benzamide] | ≤ 100 | 100 to 1000

The next lines start with the values.

IC50 [1] [nM] | IC50 [2] [nM] | SMILES
≤ 100 | 100 to 1000 | COc1cc2c(cc1N1CCOCC1=O)[nH]/c(=N\C(=O)c1cccc(CO)c1)n2CCCO [Compound 64, (E)-3-(hydroxymethyl)-N-(1-(3-hydroxypropyl)-6-methoxy-5-(3-oxomorpholino)-1H-benzo[d]imidazol-2(3H)-ylidene)benzamide]
≤ 100 | ≤ 100 | Cc1cc2c(cc1N1CCOCC1=O)[nH]/c(=N\C(=O)c1cc(F)cc(C(F)(F)F)c1)n2CCCO [Compound 67, (E)-3-fluoro-N-(1-(3-hydroxypropyl)-6-methyl-5-(3-oxomorpholino)-1H-benzo[d]imidazol-2(3H)-ylidene)-5-(trifluoromethyl)benzamide]
≤ 100 | 100 to 1000 | Cc1cc2c(cc1N1CCOCC1=O)[nH]/c(=N\C(=O)c1cccc(C#N)c1)n2CCCO [Compound 68, (E)-3-cyano-N-(1-(3-hydroxypropyl)-6-methyl-5-(3-oxomorpholino)-1H-benzo[d]imidazol-2(3H)-ylidene)benzamide]
≤ 100 | ≤ 100 | Cc1cc2c(cc1N1CCOCC1=O)[nH]/c(=N\C(=O)c1cccc(C(F)F)c1)n2CCCO [Compound 69, (E)-3-(difluoromethyl)-N-(1-(3-hydroxypropyl)-6-methyl-5-(3-oxomorpholino)-1H-benzo[d]imidazol-2(3H)-ylidene)benzamide]
≤ 100 | ≤ 100 | COc1cc2c(cc1N1CCOCC1=O)[nH]/c(=N\C(=O)c1cc(F)cc(C(F)(F)F)c1)n2CCCO [Compound 73, (E)-3-fluoro-N-(1-(3-hydroxypropyl)-6-methoxy-5-(3-oxomorpholino)-1H-benzo[d]imidazol-2(3H)-ylidene)-5-(trifluoromethyl)benzamide]
≤ 100 | ≤ 100 | COc1cc2c(cc1N1CCOCC1=O)[nH]/c(=N\C(=O)c1cccc(C(F)(F)F)c1)n2CCCO [Compound 76, (E)-N-(1-(3-hydroxypropyl)-6-methoxy-5-(3-oxomorpholino)-1H-benzo[d]imidazol-2(3H)-ylidene)-3-(trifluoromethyl)benzamide]
≤ 100 | ≤ 100 | O=C(/N=c1\[nH]c2cc(N3CCOCC3=O)ccc2n1CCCO)c1cccc(C(F)F)c1 [Compound 79, (E)-3-(difluoromethyl)-N-(1-(3-hydroxypropyl)-5-(3-oxomorpholino)-1H-benzo[d]imidazol-2(3H)-ylidene)benzamide]
≤ 100 | ≤ 100 | O=C(/N=c1\[nH]c2cc(N3CCOCC3=O)ccc2n1C1CCS(=O)(=O)CC1)c1cccc(C(F)F)c1 [Compound 80, (E)-3-(difluoromethyl)-N-(1-(1,1-dioxidotetrahydro-2H-thiopyran-4-yl)-5-(3-oxomorpholino)-1H-benzo[d]imidazol-2(3H)-ylidene)benzamide]
≤ 100 | 100 to 1000 | O=C(/N=c1\[nH]c2cc(N3CCOCC3=O)ccc2n1CCCO)c1cccc(-n2cnnn2)c1 [Compound 83, (E)-N-(1-(3-hydroxypropyl)-5-(3-oxomorpholino)-1H-benzo[d]imidazol-2(3H)-ylidene)-3-(1H-tetrazol-1-yl)benzamide]

— US10059701B2 (Merck Patent GmbH, priority 2015, dated 2018)
